# Data from PubChem BioAssay AID1963981 (Molecular Pharmacology Branch, DTP, NCI, 2024).
# Test system: 354836-022-R-J1-PDC multicell spheroid viability
# Assay: Anticancer human tumor 354836-022-R-J1-PDC patient-derived head and neck squamous cell carcinoma cell line growth inhibition [PI3K]
# Conditions: for viability, T/C: stronger effect = lower value
# Procedure, shortened: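 Tumor cells were combined with HUVEC and MSCs into spheroids, then dosed with PI3K-inhibitor combinations over half-log ranges capped near clinical Cmax or 10 microM.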
# [1] = curve of first compound, second compound 0.0316 µM
# [2] = curve of first compound, second compound 0.1 µM
# [3] = curve of first compound, second compound 0.316 µM
# [4] = curve of first compound, second compound 1 µM
# [5] = curve of first compound, second compound 3.16 µM
# [6] = curve of first compound, second compound 10 µM
# [7] = second compound 0.0316 µM, first compound 0.0316 µM
# [8] = second compound 0.0316 µM, first compound 0.1 µM
# [9] = second compound 0.0316 µM, first compound 0.316 µM
# [10] = second compound 0.0316 µM, first compound 1 µM
# [11] = second compound 0.0316 µM, first compound 3.16 µM
# [12] = second compound 0.0316 µM, first compound 10 µM
# [13] = second compound 0.1 µM, first compound 0.0316 µM
# [14] = second compound 0.1 µM, first compound 0.1 µM
# [15] = second compound 0.1 µM, first compound 0.316 µM
# [16] = second compound 0.1 µM, first compound 1 µM
# [17] = second compound 0.1 µM, first compound 3.16 µM
# [18] = second compound 0.1 µM, first compound 10 µM
# [19] = second compound 0.316 µM, first compound 0.0316 µM
# [20] = second compound 0.316 µM, first compound 0.1 µM
# [21] = second compound 0.316 µM, first compound 0.316 µM
# [22] = second compound 0.316 µM, first compound 1 µM
# [23] = second compound 0.316 µM, first compound 3.16 µM
# [24] = second compound 0.316 µM, first compound 10 µM
# [25] = second compound 1 µM, first compound 0.0316 µM
# [26] = second compound 1 µM, first compound 0.1 µM
# [27] = second compound 1 µM, first compound 0.316 µM
# [28] = second compound 1 µM, first compound 1 µM
# [29] = second compound 1 µM, first compound 3.16 µM
# [30] = second compound 1 µM, first compound 10 µM
# [31] = second compound 3.16 µM, first compound 0.0316 µM
# [32] = second compound 3.16 µM, first compound 0.1 µM
# [33] = second compound 3.16 µM, first compound 0.316 µM
# [34] = second compound 3.16 µM, first compound 1 µM
# [35] = second compound 3.16 µM, first compound 3.16 µM
# [36] = second compound 3.16 µM, first compound 10 µM
# [37] = second compound 10 µM, first compound 0.0316 µM
# [38] = second compound 10 µM, first compound 0.1 µM
# [39] = second compound 10 µM, first compound 0.316 µM
# [40] = second compound 10 µM, first compound 1 µM
# [41] = second compound 10 µM, first compound 3.16 µM
# [42] = second compound 10 µM, first compound 10 µM
# 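Also: spheroids exposed to agents for seven days before the viability read.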
structure (smiles),measurement,setting,value
CC(C)NCC(C(=O)N1CCN(c2ncnc3c2C(C)CC3O)CC1)c1ccc(Cl)cc1 (stereo not drawn) + Cc1nc(NC(=O)N2CCCC2C(N)=O)sc1-c1ccnc(C(C)(C)C(F)(F)F)c1,IC50,[1],240 nM
same,IC50,[2],221 nM
same,IC50,[3],225 nM
same,IC50,[4],401 nM
same,IC50,[5],116 nM
same,IC50,[6],< 31.6 nM
same,"viability, T/C",[7],96%
same,"viability, T/C",[8],64.5%
same,"viability, T/C",[9],50.7%
same,"viability, T/C",[10],22.4%
same,"viability, T/C",[11],18.8%
same,"viability, T/C",[12],12.2%
same,"viability, T/C",[13],78.9%
same,"viability, T/C",[14],57.3%
same,"viability, T/C",[15],51.4%
same,"viability, T/C",[16],24%
same,"viability, T/C",[17],17.5%
same,"viability, T/C",[18],10.2%
same,"viability, T/C",[19],79.3%
same,"viability, T/C",[20],65%
same,"viability, T/C",[21],42%
same,"viability, T/C",[22],29%
same,"viability, T/C",[23],16.8%
same,"viability, T/C",[24],6.96%
same,"viability, T/C",[25],59.7%
same,"viability, T/C",[26],73.8%
same,"viability, T/C",[27],54.1%
same,"viability, T/C",[28],27.9%
same,"viability, T/C",[29],18.5%
same,"viability, T/C",[30],6.41%
same,"viability, T/C",[31],53.7%
same,"viability, T/C",[32],53.2%
same,"viability, T/C",[33],40.2%
same,"viability, T/C",[34],22.7%
same,"viability, T/C",[35],13.2%
same,"viability, T/C",[36],6.1%
same,"viability, T/C",[37],34.4%
same,"viability, T/C",[38],32%
same,"viability, T/C",[39],24.8%
same,"viability, T/C",[40],13.5%
same,"viability, T/C",[41],8.39%
same,"viability, T/C",[42],4.1%
C[C@@H](NC(=O)c1ncnc(N)c1Cl)c1ncc(C(=O)Nc2cc(C(F)(F)F)c(Cl)cn2)s1,"viability, T/C",compound 0.0316 µM,105% [middle of 4 runs]
same,"viability, T/C",compound 0.1 µM,99.9% [middle of 4 runs]
same,"viability, T/C",compound 0.316 µM,99.3% [middle of 4 runs]
same,"viability, T/C",compound 1 µM,98.5% [middle of 4 runs]
same,"viability, T/C",compound 3.16 µM,105% [middle of 4 runs]
same,"viability, T/C",compound 10 µM,70.9% [middle of 4 runs]
same,IC50,curve of compound,> 10000 nM
C#Cc1c(F)ccc2cc(O)cc(-c3ncc4c(N5CC6CCC(C5)N6)nc(OCC56CCCN5CC(F)C6)nc4c3F)c12 (stereo not drawn) + Cc1nc(NC(=O)N2CCCC2C(N)=O)sc1-c1ccnc(C(C)(C)C(F)(F)F)c1,IC50,[1],> 10000 nM
same,IC50,[2],> 10000 nM
same,IC50,[3],> 10000 nM
same,IC50,[4],> 10000 nM
same,IC50,[5],> 10000 nM
same,IC50,[6],< 31.6 nM
same,"viability, T/C",[7],95%
same,"viability, T/C",[8],99.3%
same,"viability, T/C",[9],103%
same,"viability, T/C",[10],95.4%
same,"viability, T/C",[11],106%
same,"viability, T/C",[12],93.9%
same,"viability, T/C",[13],98.5%
same,"viability, T/C",[14],101%
same,"viability, T/C",[15],98.4%
same,"viability, T/C",[16],87.2%
same,"viability, T/C",[17],96%
same,"viability, T/C",[18],93.6%
same,"viability, T/C",[19],76%
same,"viability, T/C",[20],83.9%
same,"viability, T/C",[21],91.3%
same,"viability, T/C",[22],94.1%
same,"viability, T/C",[23],83.8%
same,"viability, T/C",[24],85.3%
same,"viability, T/C",[25],75.9%
same,"viability, T/C",[26],90.5%
same,"viability, T/C",[27],77.8%
same,"viability, T/C",[28],76.2%
same,"viability, T/C",[29],92.7%
same,"viability, T/C",[30],62.2%
same,"viability, T/C",[31],55.6%
same,"viability, T/C",[32],60.7%
same,"viability, T/C",[33],57.3%
same,"viability, T/C",[34],63.4%
same,"viability, T/C",[35],52.6%
same,"viability, T/C",[36],55.7%
same,"viability, T/C",[37],34.2%
same,"viability, T/C",[38],32.7%
same,"viability, T/C",[39],35.6%
same,"viability, T/C",[40],36.3%
same,"viability, T/C",[41],36.6%
same,"viability, T/C",[42],26%
CC(C)NCC(C(=O)N1CCN(c2ncnc3c2C(C)CC3O)CC1)c1ccc(Cl)cc1 (stereo not drawn) + CC(Nc1ccc2c(c1)OCCn1cc(N3C(=O)OCC3C(F)F)nc1-2)C(N)=O,IC50,"curve of first compound, second compound 0.00316 µM",242 nM
same,IC50,"curve of first compound, second compound 0.01 µM",328 nM
same,IC50,[1],333 nM
same,IC50,[2],590 nM
same,IC50,[3],202 nM
same,IC50,[4],72.2 nM
same,"viability, T/C","second compound 0.00316 µM, first compound 0.0316 µM",82.9%
same,"viability, T/C","second compound 0.00316 µM, first compound 0.1 µM",69.4%
same,"viability, T/C","second compound 0.00316 µM, first compound 0.316 µM",42.8%
same,"viability, T/C","second compound 0.00316 µM, first compound 1 µM",26.7%
same,"viability, T/C","second compound 0.00316 µM, first compound 3.16 µM",22.1%
same,"viability, T/C","second compound 0.00316 µM, first compound 10 µM",12.5%
same,"viability, T/C","second compound 0.01 µM, first compound 0.0316 µM",95.5%
same,"viability, T/C","second compound 0.01 µM, first compound 0.1 µM",68.5%
same,"viability, T/C","second compound 0.01 µM, first compound 0.316 µM",58.2%
same,"viability, T/C","second compound 0.01 µM, first compound 1 µM",24.4%
same,"viability, T/C","second compound 0.01 µM, first compound 3.16 µM",22.3%
same,"viability, T/C","second compound 0.01 µM, first compound 10 µM",8.88%
same,"viability, T/C",[7],74.5%
same,"viability, T/C",[8],75%
same,"viability, T/C",[9],45.8%
same,"viability, T/C",[10],31.9%
same,"viability, T/C",[11],21.3%
same,"viability, T/C",[12],10.8%
same,"viability, T/C",[13],75.4%
same,"viability, T/C",[14],73.6%
same,"viability, T/C",[15],68.5%
same,"viability, T/C",[16],34.2%
same,"viability, T/C",[17],18.6%
same,"viability, T/C",[18],8.92%
same,"viability, T/C",[19],62.4%
same,"viability, T/C",[20],58.6%
same,"viability, T/C",[21],44.7%
same,"viability, T/C",[22],28.4%
same,"viability, T/C",[23],16.2%
same,"viability, T/C",[24],7.58%
same,"viability, T/C",[25],56.7%
same,"viability, T/C",[26],45.9%
same,"viability, T/C",[27],38.9%
same,"viability, T/C",[28],28%
same,"viability, T/C",[29],15.8%
same,"viability, T/C",[30],9.1%
